{
  "source": "patent US7459481B2",
  "about": "“Stimulation of CPT-1 as a means to reduce weight” (The Johns Hopkins University School of Medicine Licensing …, priority 2002, dated 2008)",
  "key": {"liver isoform of CPT-1": {"molecular_target": "T1, liver isoform of CPT-1 (Homo sapiens, UniProt P50416)", "T1 sequence (P50416 1-773)": "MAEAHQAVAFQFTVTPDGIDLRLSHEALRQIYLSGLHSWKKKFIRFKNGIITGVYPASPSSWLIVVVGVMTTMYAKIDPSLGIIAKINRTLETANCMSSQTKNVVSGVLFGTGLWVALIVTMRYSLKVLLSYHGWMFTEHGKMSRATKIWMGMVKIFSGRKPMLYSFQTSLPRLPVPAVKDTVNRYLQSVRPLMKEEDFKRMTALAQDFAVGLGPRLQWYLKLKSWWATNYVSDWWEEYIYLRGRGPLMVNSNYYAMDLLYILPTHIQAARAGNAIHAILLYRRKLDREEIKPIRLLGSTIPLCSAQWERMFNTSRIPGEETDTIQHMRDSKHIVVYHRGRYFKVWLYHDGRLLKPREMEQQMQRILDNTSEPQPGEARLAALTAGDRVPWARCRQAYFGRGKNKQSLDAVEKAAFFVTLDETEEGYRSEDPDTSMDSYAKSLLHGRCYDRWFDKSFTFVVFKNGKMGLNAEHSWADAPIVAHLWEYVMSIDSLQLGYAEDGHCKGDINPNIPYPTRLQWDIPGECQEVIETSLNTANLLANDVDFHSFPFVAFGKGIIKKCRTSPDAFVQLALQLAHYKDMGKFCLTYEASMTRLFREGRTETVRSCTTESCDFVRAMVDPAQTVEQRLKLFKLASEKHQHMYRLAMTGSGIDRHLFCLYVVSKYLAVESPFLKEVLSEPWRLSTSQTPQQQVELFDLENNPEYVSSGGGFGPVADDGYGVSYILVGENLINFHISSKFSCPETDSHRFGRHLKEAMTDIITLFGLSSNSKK", "details": "cited from earlier work"}, "CPT-1": {"molecular_target": "T2, CPT-1 (Homo sapiens, UniProt P50416)", "T2 construct": "endogenous in cells; host or cells: MCF-7 human breast cancer cells", "T2 sequence (P50416 1-773)": "T1 sequence (P50416 1-773)", "test": "CPT-1 activity assay in MCF-7 cells", "format": "cell-based", "details": "for CPT-1 activity, % of control: FIG. 4; for CPT-1 Stimulation (% Control): cells preincubated 2 hours", "protocol": "CPT-1 activity was assayed in MCF-7 cells by the following published procedure: MCF-7 cells were plated in DMEM with 10% fetal bovine serum at 10^6 cells in 24-well plates in triplicate. Following overnight incubation at 37° C., the medium was removed and replaced with 700 μl of assay medium consisting of: 50 mM imidazole, 70 mM KCl, 80 mM sucrose, 1 mM EGTA, 2 mM MgCl2, 1 mM DTT, 1 mM KCN, 1 mM ATP, 0.1% fatty acid free bovine serum albumin, 70 μM palmitoyl-CoA, 0.25 μCi [methyl-^14C]L-carnitine, 40 μg digitonin with or without 20 μM malonyl-CoA. After incubation for 6 minutes at 37° C., the reaction was stopped by the addition of 500 μl of ice-cold 4 M perchloric acid. Cells were then harvested and centrifuged at 13,000×g for 5 min. The pellet was washed with 500 μl ice cold 2 mM perchloric acid and centrifuged again. The resulting pellet was resuspended in 800 μl dH2O and extracted with 150 μl of butanol. The butanol phase was counted by liquid scintillation and represents the acylcarnitine derivative.\nMCF-7 cells were treated with C75 at 10 or 20 μg/mL for 1 hr before CPT-1 activity was assayed. The assay was performed with the C75 and malonyl-CoA concentrations indicated (“M” indicates malonyl-CoA at 20 uM). Malonyl-CoA treatment alone caused a 46% reduction in CPT-1 activity similar to the previous experiment (see FIG. 2; p=0.02, two-tailed t-test, Prism 3.0). The level of malonyl-CoA inhibition of the CPT-1 activity is consistent with the activity of the liver isoform of CPT-1 in MCF-7 cells. The Ki of malonyl-CoA for the liver isoform of CPT-1 is ˜7 μM while the Ki for the muscle isoform of CPT-1 is 0.07 μM. Thus, MCF-7 cells express predominantly the liver isoform of CPT-1 (consistent with the immunoblot analysis).\n(§1) FAS activity was measured by monitoring the malonyl-CoA dependent oxidation of NADPH spectrophotometrically at OD340 in 96-well plates, as described in International Patent Publication WO 2004/005277. The IC50 for the compounds against FAS was determined by plotting the change in OD340 against time for each inhibitor concentration tested and determining the rate of change by linear regression. The concentration of a particular compound yielding 50% inhibition of the rate for FAS in the absence of the compound is the IC50. Stimulation of CPT-1 activity was measured as described in Example 2, except the cells were preincubated with the compound for 2 hours at the concentrations indicated in the table. Stimulation of Fatty acid oxidation was determined as described in Example 1 for cells preincubated with the compounds at the concentrations indicated in the table."}, "muscle isoform of CPT-1": {"molecular_target": "T3, muscle isoform of CPT-1 (Homo sapiens, UniProt Q92523)", "T3 sequence (Q92523 1-772)": "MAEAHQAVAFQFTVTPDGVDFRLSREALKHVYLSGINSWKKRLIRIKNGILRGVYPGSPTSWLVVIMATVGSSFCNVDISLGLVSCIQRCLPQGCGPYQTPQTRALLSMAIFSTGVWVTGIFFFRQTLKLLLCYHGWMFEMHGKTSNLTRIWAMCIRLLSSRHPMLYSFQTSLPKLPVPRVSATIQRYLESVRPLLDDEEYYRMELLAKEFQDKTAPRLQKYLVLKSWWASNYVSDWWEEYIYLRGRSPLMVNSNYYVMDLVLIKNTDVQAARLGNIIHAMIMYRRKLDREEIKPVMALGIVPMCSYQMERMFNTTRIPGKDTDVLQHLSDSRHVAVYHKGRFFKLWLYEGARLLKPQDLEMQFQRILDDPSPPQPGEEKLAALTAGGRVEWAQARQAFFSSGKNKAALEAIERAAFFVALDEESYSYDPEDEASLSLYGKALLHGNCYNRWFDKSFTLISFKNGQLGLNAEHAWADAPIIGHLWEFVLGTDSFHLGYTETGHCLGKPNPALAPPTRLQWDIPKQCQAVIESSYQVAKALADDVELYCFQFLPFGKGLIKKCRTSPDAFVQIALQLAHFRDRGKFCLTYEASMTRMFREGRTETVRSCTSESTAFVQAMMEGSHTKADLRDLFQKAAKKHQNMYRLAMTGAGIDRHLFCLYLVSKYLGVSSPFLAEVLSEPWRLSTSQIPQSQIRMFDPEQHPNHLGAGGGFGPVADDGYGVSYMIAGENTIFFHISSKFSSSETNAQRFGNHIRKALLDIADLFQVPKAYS", "details": "cited from earlier work"}, "MCF-7 cells [1]": {"system": "MCF-7 cells", "test": "Fatty acid oxidation ([1-14C]palmitate to 14CO2) in MCF-7 cells", "format": "cell-based, human", "protocol": "Human breast cancer cell line MCF-7 was obtained from the American Type Culture Collection. 1×10^6 MCF-7 cells were plated in T-25 flasks in triplicate and incubated overnight at 37° C. Drugs were then added as indicated diluted from 5 mg/ml stock in DMSO. After 2 hours, medium with drugs was removed and cells were preincubated for 30 min. with 1.5 ml of the following buffer: 114 mM NaCl, 4.7 mM KCl, 1.2 mM KH2PO4, 1.2 mM MgSO4, glucose 11 mM. After preincubation, 200 μl of assay buffer was added containing: 114 mM NaCl, 4.7 mM KCl, 1.2 mM KH2PO4, 1.2 mM MgSO4, glucose 11 mM, 2.5 mM palmitate (containing with 10 μCi of [1-^14C]palmitate) bound to albumin, 0.8 mM L-carnitine, and cells were incubated at 37° C. for 2 h. Following the incubation, 400 μl of benzethonium hydrochloride was added to the center well to collect released ^14CO2. Immediately, the reaction was stopped by adding 500 μl of 7% perchloric acid to the cells. The flasks with wells were then incubated for 2 h at 37° C. after which the benzothonium hydrochloride was removed and counted for ^14C. Blanks were prepared by adding 500 μl of 7% perchloric acid to the cells prior to the incubation with the assay buffer for 2 h.\nas §1"}, "MCF-7 cells [2]": {"system": "MCF-7 cells", "details": "cited from earlier work"}, "MCF-7 cells [3]": {"system": "MCF-7 cells", "details": "literature; cited from earlier work"}, "FAS": {"molecular_target": "FAS (Homo sapiens, UniProt P49327)", "sequence (P49327 whole entry)": "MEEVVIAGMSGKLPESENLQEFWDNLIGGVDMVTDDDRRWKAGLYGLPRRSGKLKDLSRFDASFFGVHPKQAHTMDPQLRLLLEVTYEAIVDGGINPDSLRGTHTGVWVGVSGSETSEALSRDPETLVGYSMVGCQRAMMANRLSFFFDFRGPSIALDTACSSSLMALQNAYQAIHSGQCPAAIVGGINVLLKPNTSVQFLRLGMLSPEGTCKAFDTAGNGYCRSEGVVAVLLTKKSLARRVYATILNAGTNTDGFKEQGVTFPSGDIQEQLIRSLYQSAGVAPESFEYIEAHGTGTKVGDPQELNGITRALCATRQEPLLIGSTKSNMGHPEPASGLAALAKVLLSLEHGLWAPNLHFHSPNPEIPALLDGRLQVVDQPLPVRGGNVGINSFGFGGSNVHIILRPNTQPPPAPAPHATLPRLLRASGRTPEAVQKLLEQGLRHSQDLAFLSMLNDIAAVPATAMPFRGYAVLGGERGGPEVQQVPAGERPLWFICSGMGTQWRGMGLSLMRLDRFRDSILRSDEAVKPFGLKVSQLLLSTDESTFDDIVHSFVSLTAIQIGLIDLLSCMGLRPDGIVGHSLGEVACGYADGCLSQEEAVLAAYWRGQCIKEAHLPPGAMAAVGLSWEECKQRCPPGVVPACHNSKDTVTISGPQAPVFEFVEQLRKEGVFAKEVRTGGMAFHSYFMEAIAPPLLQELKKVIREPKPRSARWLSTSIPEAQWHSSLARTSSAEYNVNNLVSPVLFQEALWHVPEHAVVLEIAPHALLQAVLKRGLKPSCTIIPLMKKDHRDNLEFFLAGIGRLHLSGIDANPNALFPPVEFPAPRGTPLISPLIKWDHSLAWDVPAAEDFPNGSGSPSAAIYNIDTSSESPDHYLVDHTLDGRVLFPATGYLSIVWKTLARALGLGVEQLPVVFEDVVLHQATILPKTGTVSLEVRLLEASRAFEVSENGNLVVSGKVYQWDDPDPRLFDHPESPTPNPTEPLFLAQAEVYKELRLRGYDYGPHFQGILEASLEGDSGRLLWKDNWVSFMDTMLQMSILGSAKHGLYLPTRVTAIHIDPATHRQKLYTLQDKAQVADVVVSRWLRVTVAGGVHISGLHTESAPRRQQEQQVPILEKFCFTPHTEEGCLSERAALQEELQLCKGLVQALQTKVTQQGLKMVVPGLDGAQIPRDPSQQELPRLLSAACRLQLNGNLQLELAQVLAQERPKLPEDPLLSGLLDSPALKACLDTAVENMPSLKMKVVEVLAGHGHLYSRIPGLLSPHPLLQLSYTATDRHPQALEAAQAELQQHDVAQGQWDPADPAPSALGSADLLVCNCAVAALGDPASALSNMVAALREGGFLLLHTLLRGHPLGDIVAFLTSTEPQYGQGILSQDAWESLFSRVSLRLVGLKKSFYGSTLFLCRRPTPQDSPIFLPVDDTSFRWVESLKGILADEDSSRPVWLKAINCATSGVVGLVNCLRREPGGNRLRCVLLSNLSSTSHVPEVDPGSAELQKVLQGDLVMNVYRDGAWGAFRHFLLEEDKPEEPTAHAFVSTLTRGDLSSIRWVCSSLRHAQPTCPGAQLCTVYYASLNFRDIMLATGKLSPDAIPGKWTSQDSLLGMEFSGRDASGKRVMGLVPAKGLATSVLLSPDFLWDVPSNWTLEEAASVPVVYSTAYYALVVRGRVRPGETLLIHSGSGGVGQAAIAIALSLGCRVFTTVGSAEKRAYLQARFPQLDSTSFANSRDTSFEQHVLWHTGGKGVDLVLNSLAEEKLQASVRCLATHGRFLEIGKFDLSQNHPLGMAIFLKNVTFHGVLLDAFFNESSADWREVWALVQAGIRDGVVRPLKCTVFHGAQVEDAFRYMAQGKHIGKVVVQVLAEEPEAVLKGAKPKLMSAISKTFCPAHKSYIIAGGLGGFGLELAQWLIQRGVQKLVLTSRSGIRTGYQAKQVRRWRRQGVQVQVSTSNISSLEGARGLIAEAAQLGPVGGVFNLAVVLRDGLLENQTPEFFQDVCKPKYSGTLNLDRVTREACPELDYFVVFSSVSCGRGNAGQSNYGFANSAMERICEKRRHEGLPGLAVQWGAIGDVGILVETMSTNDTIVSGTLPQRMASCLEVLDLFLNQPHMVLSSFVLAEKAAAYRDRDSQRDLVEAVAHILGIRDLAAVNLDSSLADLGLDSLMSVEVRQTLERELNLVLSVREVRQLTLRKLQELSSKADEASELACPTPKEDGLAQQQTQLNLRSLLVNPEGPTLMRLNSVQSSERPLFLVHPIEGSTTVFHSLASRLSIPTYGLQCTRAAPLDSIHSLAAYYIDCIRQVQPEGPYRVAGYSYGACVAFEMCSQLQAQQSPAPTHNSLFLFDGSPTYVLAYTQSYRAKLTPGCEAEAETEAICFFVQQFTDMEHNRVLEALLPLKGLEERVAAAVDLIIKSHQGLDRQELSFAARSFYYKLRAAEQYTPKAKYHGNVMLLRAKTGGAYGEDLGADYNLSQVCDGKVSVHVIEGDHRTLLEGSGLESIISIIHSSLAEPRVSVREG", "test": "FAS activity, malonyl-CoA dependent oxidation of NADPH at OD340", "format": "biochemical", "details": "read-out: FAS Inhibition (IC50) (converted)", "protocol": "as §1"}, "[4]": {"details": "MCF-7, 20 μg/ml 1 hr before assay"}},
  "note": "Several values for one entry are separate records, joined by “and”; a condition that tells them apart may be missing. Equal values may be shown once.",
  "data": [
    {"smiles": "CC(C)(COP(=O)(O)OP(=O)(O)OC[C@H]1O[C@@H](n2cnc3c(N)ncnc32)[C@H](O)[C@@H]1OP(=O)(O)O)[C@@H](O)C(=O)NCCC(=O)NCCSC(=O)CC(=O)O", "note": "[Malonyl-CoA, reference compound]", "values": [
      {"measurement": "Ki", "setting": "liver isoform of CPT-1", "result": "~7", "unit": "µM"},
      {"measurement": "CPT-1 activity, % of control", "setting": "CPT-1; MCF-7, 20 μM in reaction buffer", "result": "64 % of control"},
      {"measurement": "reduction (inhibition) of CPT-1 activity", "setting": "CPT-1; malonyl-CoA alone at 20 μM in the assay, MCF-7", "result": "46% and ~70%"},
      {"measurement": "Ki", "setting": "muscle isoform of CPT-1", "result": 0.07, "unit": "µM"}
    ]},
    {"smiles": "C=CCC1(CC=C)C(=O)S[C@@](C)(CCCCCCCC)C1=O", "note": "(racemic)", "values": [
      {"measurement": "Fatty Acid Oxidation (% Control)", "setting": "MCF-7 cells [1]; 10 μg/mL", "result": 175, "unit": "% Control"},
      {"measurement": "CPT-1 Stimulation (% Control)", "setting": "CPT-1; 20 μg/mL", "result": 175, "unit": "% Control"}
    ]},
    {"smiles": "C=C1C(=O)OC(CCCCCCCCCCCCCCCC)C1C(=O)O", "note": "(centres unmarked) [Compound C16]", "values": [
      {"measurement": "CPT-1 activity, % of control", "setting": "CPT-1; [4]", "result": "138 % of control"}
    ]},
    {"smiles": "CCOC(=O)[C@@]1(CCCCCCOc2ccc(Cl)cc2)CO1", "note": "[Etomoxir, reference compound]", "values": [
      {"measurement": "fatty acid oxidation, % of control", "setting": "MCF-7 cells [1]; MCF-7, FIG. 1", "result": "32 % of control"}
    ]},
    {"smiles": "C=C1C(=O)OC(CCCCCCCCCCCC)C1C(=O)O", "note": "(centres unmarked) [Compound C12]", "values": [
      {"measurement": "CPT-1 activity, % of control", "setting": "CPT-1; [4]", "result": "186 % of control"}
    ]},
    {"smiles": "C/C=C/C/C=C/CCC(=O)[C@H]1O[C@H]1C(N)=O", "note": "[Cerulenin, reference compound]", "values": [
      {"measurement": "effect on malonyl-CoA amount", "setting": "MCF-7 cells [2]", "result": "increases"},
      {"measurement": "effect on fatty acid oxidation", "setting": "MCF-7 cells [3]", "result": "inhibition of fatty acid oxidation"}
    ]},
    {"smiles": "C=C1C(=O)O[C@@H](CCCCCCCC)[C@@H]1C(=O)NCC(=O)O", "note": "(racemic)", "values": [
      {"measurement": "Fatty Acid Oxidation (% Control)", "setting": "MCF-7 cells [1]; 40 μg/mL", "result": 500, "unit": "% Control"},
      {"measurement": "IC50", "setting": "FAS", "result": 167, "unit": "µM"},
      {"measurement": "CPT-1 Stimulation (% Control)", "setting": "CPT-1; 80 μg/mL", "result": 500, "unit": "% Control"}
    ]},
    {"smiles": "C=CCNC(=O)[C@@H]1C(=C)C(=O)O[C@H]1CCCCCCCC", "note": "(racemic)", "values": [
      {"measurement": "Fatty Acid Oxidation (% Control)", "setting": "MCF-7 cells [1]; 0.625 μg/mL", "result": 400, "unit": "% Control"},
      {"measurement": "IC50", "setting": "FAS", "result": 163, "unit": "µM"},
      {"measurement": "CPT-1 Stimulation (% Control)", "setting": "CPT-1; 10 μg/mL", "result": 400, "unit": "% Control"}
    ]},
    {"smiles": "CCCCCCCC[C@]1(C)SC(=O)C=C1OC(=O)OCC", "note": "(racemic)", "values": [
      {"measurement": "Fatty Acid Oxidation (% Control)", "setting": "MCF-7 cells [1]; 10 μg/mL", "result": 140, "unit": "% Control"},
      {"measurement": "IC50", "setting": "FAS", "result": 14.6, "unit": "µM"},
      {"measurement": "CPT-1 Stimulation (% Control)", "setting": "CPT-1; 20 μg/mL", "result": 150, "unit": "% Control"}
    ]}
  ]
}
